In patent US10087178B2, “Substituted spiropyrido[1,2-a]pyrazine derivative and medicinal use thereof as HIV integrase inhibitor” (priority 2012, dated 2018):
Structures can show the parent of a compound that is named as a salt. Where two headings read alike, the source gives them in different places.

Tested on: HIV-1 NL4-3 strain
Test: Evaluation of antiviral activity: acute infection system of MT-4 cell with HIV-1 NL4-3 strain
Assay type: cell-based
[1] = Human immunodeficiency virus 1, NL43, MT4, 120 h, antiviral activity, MT-4 cells infected with HIV-1 NL4-3 (MOI 0.05), 5 days culture, Cell Titer-Glo luminescence, read-out: EC50
[2] = Human immunodeficiency virus 1, NL43, MT4, 120 h, antiviral activity, MT-4 cells infected with HIV-1 NL4-3 (MOI 0.05), 5 days culture, Cell Titer-Glo luminescence
[3] = Human immunodeficiency virus 1, NL43, MT4, 120 h, read-out: antiviral activity (EC50)
[4] = MT-4 cells infected with HIV-1 NL4-3 strain (MOI 0.05), cultured 5 days, Cell Titer-Glo, read-out: antiviral activity (EC50)

Work on CC(C)N1CC2(CC(O)C2)n2cc(C(=O)NCc3ccc(F)cc3F)c(=O)c(O)c2C1=O (single isomer, unassigned) [Example S3, N-(2,4-difluorobenzyl)- trans-3,9′-dihydroxy-2′-isopropyl-1′,8′-dioxo-1′,2′,3′,8′-tetrahydrospiro[cyclobutane-1,4′-pyrido[1,2-a]pyrazine]-7′-carboxamide hydrobromide] yielded an EC50 [1] of 11 nM.
With CC(C)N1CC2(CC(O)C2)n2cc(C(=O)NCc3ccc(F)cc3F)c(=O)c(O)c2C1=O (single isomer, unassigned) [Example S4, N-(2,4-difluorobenzyl)-cis-3,9′-dihydroxy-2′-isopropyl-1′,8′-dioxo-1′,2′,3′,8′-tetrahydrospiro[cyclobutane-1,4′-pyrido[1,2-a]pyrazine]-7′-carboxamide] the EC50 [1] was 4.9 nM.
For CO[C@H]1C[C@]2(CN(C)C(=O)c3c(O)c(=O)c(C(=O)NCc4cccc(Cl)c4F)cn32)C1 [Example 1, N-(3-chloro-2-fluorobenzyl)-9′-hydroxy-cis-3-methoxy-2′-methyl-1′,8′-dioxo-1′,2′,3′,8′-tetrahydrospiro[cyclobutane-1,4′-pyrido[1,2-a]pyrazine]-7′-carboxamide hydrochloride], the EC50 (read-out: EC50) was 3.1 nM.
For CO[C@H]1C[C@@]2(CN(C)C(=O)c3c(O)c(=O)c(C(=O)NCc4cccc(Cl)c4F)cn32)C1 [Example 2, N-(3-chloro-2-fluorobenzyl)-9′-hydroxy-trans-3-methoxy-2′-methyl-1′,8′-dioxo-1′,2′,3′,8′-tetrahydrospiro[cyclobutane-1,4′-pyrido[1,2-a]pyrazine]-7′-carboxamide hydrochloride], the EC50 [2] was 4.2 nM.
COC[C@H]1C[C@]2(CN(C)C(=O)c3c(O)c(=O)c(C(=O)NCc4cccc(Cl)c4F)cn32)C1 [Example 3, N-(3-chloro-2-fluorobenzyl)-9′-hydroxy-cis-3-(methoxymethyl)-2′-methyl-1′,8′-dioxo-1′,2′,3′,8′-tetrahydrospiro[cyclobutane-1,4′-pyrido[1,2-a]pyrazine]-7′-carboxamide hydrochloride] was tested, and the EC50 [2] was 3.2 nM.
In the case of CC(C)N1C[C@@]2(C[C@@H]2CO)n2cc(C(=O)NCc3ccc(F)cc3F)c(=O)c(O)c2C1=O [Example 9, (1S,2S)—N-(2,4-difluorobenzyl)-9′-hydroxy-2-(hydroxymethyl)-2′-isopropyl-1′,8′-dioxo-1′,2′,3′,8′-tetrahydrospiro[cyclopropane-1,4′-pyrido[1,2-a]pyrazine]-7′-carboxamide hydrochloride], the EC50 [2] is reported as 5.6 nM.
For COC[C@H]1C[C@@]12CN(C(C)C)C(=O)c1c(O)c(=O)c(C(=O)NCc3ccc(F)cc3F)cn12 [Example 10, (1S,2S)—N-(2,4-difluorobenzyl)-9′-hydroxy-2′-isopropyl-2-(methoxymethyl)-1′,8′-dioxo-1′,2′,3′,8′-tetrahydrospiro[cyclopropane-1,4′-pyrido[1,2-a]pyrazine]-7′-carboxamide hydrochloride], the EC50 [2] was 3.6 nM.
Work on CC(C)N1C[C@]2(C[C@H]2CO)n2cc(C(=O)NCc3ccc(F)cc3F)c(=O)c(O)c2C1=O [Example 11, (1R,2R)—N-(2,4-difluorobenzyl)-9′-hydroxy-2-(hydroxymethyl)-2′-isopropyl-1′,8′-dioxo-1′,2′,3′,8′-tetrahydrospiro[cyclopropane-1,4′-pyrido[1,2-a]pyrazine]-7′-carboxamide hydrochloride] yielded an EC50 [2] of 5.8 nM.
With COC[C@@H]1C[C@]12CN(C(C)C)C(=O)c1c(O)c(=O)c(C(=O)NCc3ccc(F)cc3F)cn12 [Example 12, (1R,2R)—N-(2,4-difluorobenzyl)-9′-hydroxy-2′-isopropyl-2-(methoxymethyl)-1′,8′-dioxo-1′,2′,3′,8′-tetrahydrospiro[cyclopropane-1,4′-pyrido[1,2-a]pyrazine]-7′-carboxamide hydrochloride] the EC50 [2] was 5 nM.
In the case of CC(C)N1C[C@]2(C[C@@H]2CO)n2cc(C(=O)NCc3ccc(F)cc3F)c(=O)c(O)c2C1=O [Example 13, (1R,2S)—N-(2,4-difluorobenzyl)-9′-hydroxy-2-(hydroxymethyl)-2′-isopropyl-1′,8′-dioxo-1′,2′,3′,8′-tetrahydrospiro[cyclopropane-1,4′-pyrido[1,2-a]pyrazine]-7′-carboxamide hydrochloride], the EC50 [2] is reported as 5.4 nM.
COC[C@H]1C[C@]12CN(C(C)C)C(=O)c1c(O)c(=O)c(C(=O)NCc3ccc(F)cc3F)cn12 [Example 14, (1R,2S)—N-(2,4-difluorobenzyl)-9′-hydroxy-2′-isopropyl-2-(methoxymethyl)-1′,8′-dioxo-1′,2′,3′,8′-tetrahydrospiro[cyclopropane-1,4′-pyrido[1,2-a]pyrazine]-7′-carboxamide] showed an EC50 [1] of 9.1 nM.
CC(C)N1C[C@@]2(C[C@H]2CO)n2cc(C(=O)NCc3ccc(F)cc3F)c(=O)c(O)c2C1=O [Example 15, (1S,2R)—N-(2,4-difluorobenzyl)-9′-hydroxy-2-(hydroxymethyl)-2′-isopropyl-1′,8′-dioxo-1′,2′,3′,8′-tetrahydrospiro[cyclopropane-1,4′-pyrido[1,2-a]pyrazine]-7′-carboxamide hydrochloride] gave an EC50 [2] of 7.2 nM.
For COC[C@@H]1C[C@@]12CN(C(C)C)C(=O)c1c(O)c(=O)c(C(=O)NCc3ccc(F)cc3F)cn12 [Example 16, (1S,2R)—N-(2,4-difluorobenzyl)-9′-hydroxy-2′-isopropyl-2-(methoxymethyl)-1′,8′-dioxo-1′,2′,3′,8′-tetrahydrospiro[cyclopropane-1,4′-pyrido[1,2-a]pyrazine]-7′-carboxamide], the EC50 [1] was 6.1 nM.
With CCN1C(=O)c2c(O)c(=O)c(C(=O)NCc3cccc(Cl)c3F)cn2C[C@@]12C[C@@H]2COC [Example 17, (1S,2S)—N-(3-chloro-2-fluorobenzyl)-2′-ethyl-9′-hydroxy-2-(methoxymethyl)-1′,8′-dioxo-1′,2′,4′,8′-tetrahydrospiro[cyclopropane-1,3′-pyrido[1,2-a]pyrazine]-7′-carboxamide] the EC50 [1] was 3.4 nM.
CCN1C(=O)c2c(O)c(=O)c(C(=O)NCc3cccc(Cl)c3F)cn2C[C@]12C[C@H]2COC [Example 18, (1R,2R)—N-(3-chloro-2-fluorobenzyl)-2′-ethyl-9′-hydroxy-2-(methoxymethyl)-1′,8′-dioxo-1′,2′,4′,8′-tetrahydrospiro[cyclopropane-1,3′-pyrido[1,2-a]pyrazine]-7′-carboxamide] showed an EC50 [1] of 2.6 nM.
CCN1C[C@@]2(C[C@@H]2C(=O)N(C)C)n2cc(C(=O)NCc3ccc(F)cc3F)c(=O)c(O)c2C1=O [Example 19, (1S,2S)—N^7′-(2,4-difluorobenzyl)-2′-ethyl-9′-hydroxy-N^2,N^2-dimethyl-1′,8′-dioxo-1′,2′,3′,8′-tetrahydrospiro[cyclopropane-1,4′-pyrido[1,2-a]pyrazine]-2,7′-dicarboxamide hydrochloride] gave an EC50 [1] of 4.2 nM.
For CC(=O)N(C)C1CC2(C1)CN(C(C)C)C(=O)c1c(O)c(=O)c(C(=O)NCc3ccc(F)cc3F)cn12 (centres unmarked) [Example 20, N-(2,4-difluorobenzyl)-9′-hydroxy-2′-isopropyl-3-(N-methylacetamido)-1′,8′-dioxo-1′,2′,3′,8′-tetrahydrospiro[cyclobutane-1,4′-pyrido[1,2-a]pyrazine]-7′-carboxamide hydrochloride], the EC50 [2] was 20 nM.
With CC(C)N1C[C@]2(C[C@H]2CS(C)(=O)=O)n2cc(C(=O)NCc3cccc(Cl)c3F)c(=O)c(O)c2C1=O [Example 21, (1R,2R)—N-(3-chloro-2-fluorobenzyl)-9′-hydroxy-2′-isopropyl-2-(methylsulfonylmethyl)-1′,8′-dioxo-1′,2′,3′,8′-tetrahydrospiro[cyclopropane-1,4′-pyrido[1,2-a]pyrazine]-7′-carboxamide hydrochloride] the EC50 [2] was 48 nM.
For CN1C[C@]2(C[C@H](C(=O)O)C2)n2cc(C(=O)NCc3cccc(Cl)c3F)c(=O)c(O)c2C1=O [Example 22, 7′-(3-chloro-2-fluorobenzylcarbamoyl)-9′-hydroxy-2′-methyl-1′,8′-dioxo-1′,2′,3′,8′-tetrahydrospiro[cyclobutane-1,4′-pyrido[1,2-a]pyrazine]-cis-3-carboxylic acid hydrochloride], the EC50 [3] was 400 nM.
With CO[C@H]1C[C@]2(CN(C)C(=O)c3c(O)c(=O)c(C(=O)NCc4cccc(Cl)c4F)cn32)C1 [Example 23, N-(3-chloro-2-fluorobenzyl)-9′-hydroxy-cis-3-methoxy-2′-methyl-1′,8′-dioxo-1′,2′,3′,8′-tetrahydrospiro[cyclobutane-1,4′-pyrido[, 2-a]pyrazine]-7′-carboxamide] the EC50 (Human immunodeficiency virus 1, NL43, MT4, 120 h, MT-4 cells infected with HIV-1 NL4-3 strain (MOI 0.05), cultured 5 days, Cell Titer-Glo, read-out: antiviral activity (EC50)) was 1.6 nM.
CO[C@H]1C[C@]2(CN(C)C(=O)c3c(O)c(=O)c(C(=O)NCc4cccc(Cl)c4F)cn32)C1 [Example 24, Monosodium 7′-(3-chloro-2-fluorobenzylcarbamoyl)-cis-3-methoxy-2′-methyl-1′,8′-dioxo-1′,2′,3′,8′-tetrahydrospiro[cyclobutane-1,4′-pyrido[1,2-a]pyrazin]-9′-olate] showed an EC50 [4] of 0.9 nM.
Molecule CO[C@H]1C[C@]2(CN(C)C(=O)c3c(O)c(=O)c(C(=O)NCc4cccc(Cl)c4F)cn32)C1 [Example 25, Monopotassium 7′-(3-chloro-2-fluorobenzylcarbamoyl)-cis-3-methoxy-2′-methyl-1′,8′-dioxo-1′,2′,3′,8′-tetrahydrospiro[cyclobutane-1,4′-pyrido[1,2-a]pyrazin]-9′-olate] has an EC50 [3] of 2.1 nM.
In the case of COC[C@H]1C[C@]2(CN(C)C(=O)c3c(O)c(=O)c(C(=O)NCc4cccc(Cl)c4F)cn32)C1 [Example 26, N-(3-chloro-2-fluorobenzyl)-9′-hydroxy-cis-3-(methoxymethyl)-2′-methyl-1′,8′-dioxo-1′,2′,3′,8′-tetrahydrospiro[cyclobutane-1,4′-pyrido[1,2-a]pyrazine]-7′-carboxamide], the EC50 [4] is reported as 1.9 nM.
